Experimental data as given in patent US9688710B2, “Inhibitors of sodium glucose cotransporter 1” (LEXICON PHARMACEUTICALS, INC., priority 2012, dated 2017).

Assays:
[1] = target: Human sodium/glucose co-transporter type 2 (SGLT2) (Homo sapiens (Human), UniProt P31639); assay: In vitro human SGLT2 inhibition assay (14C-AMG uptake); format: cell-based; details: HEK293 cells expressing human HA-SGLT2, 14C-AMG uptake
Method: Human sodium/glucose co-transporter type 2 (SGLT2; accession number P31639; GI:400337) was cloned into pIRESpuro2 vector for mammalian expression (construct: HA-SGLT2-pIRESpuro2).
HEK293 cells were transfected with the human HA-SGLT2-pIRESpuro2 vector and the bulk stable cell line was selected in presence of 0.5 μg/mL of puromycin. Human HA-SGLT2 cells were maintained in DMEM media containing 10% FBS, 1% GPS and 0.5 μg/mL of puromycin.
The HEK293 cells expressing the human HA-SGLT2 were seeded in 384 well plates (30,000 cells/well) in DMEM media containing 10% FBS, 1% GPS and 0.5 μg/mL of puromycin, then incubated overnight at 37 C, 5% CO2. Cells were then washed with uptake buffer (140 mM NaCl, 2 mM KCl, 1 mM CaCl2, 1 mM MgCl2, 10 mM HEPES, 5 mM Tris, 1 mg/mL bovine serum albumin (BSA), pH 7.3). Twenty microliters of uptake buffer with or without testing compounds were added to the cells. Then, 20 microliters of uptake buffer containing ^14C-AMG (100 nCi) were added to the cells. The cell plates were incubated at 37° C., 5% CO2 for 1-2 hours. After washing the cells with uptake buffer, scintillation fluid was added (40 microliters/well) and ^14C-AMG uptake was measured by counting radioactivity using a scintillation coulter (TopCoulter NXT; Packard Instruments).

[2] = target: Human sodium/glucose co-transporter type 1 (SGLT1) (Homo sapiens (Human), UniProt P13866); assay: In vitro human SGLT1 inhibition assay (14C-AMG uptake); format: cell-based; details: HEK293 cells expressing human HA-SGLT1, 14C-AMG uptake
Chain of Human sodium/glucose co-transporter type 1 (SGLT1) (P13866 whole entry): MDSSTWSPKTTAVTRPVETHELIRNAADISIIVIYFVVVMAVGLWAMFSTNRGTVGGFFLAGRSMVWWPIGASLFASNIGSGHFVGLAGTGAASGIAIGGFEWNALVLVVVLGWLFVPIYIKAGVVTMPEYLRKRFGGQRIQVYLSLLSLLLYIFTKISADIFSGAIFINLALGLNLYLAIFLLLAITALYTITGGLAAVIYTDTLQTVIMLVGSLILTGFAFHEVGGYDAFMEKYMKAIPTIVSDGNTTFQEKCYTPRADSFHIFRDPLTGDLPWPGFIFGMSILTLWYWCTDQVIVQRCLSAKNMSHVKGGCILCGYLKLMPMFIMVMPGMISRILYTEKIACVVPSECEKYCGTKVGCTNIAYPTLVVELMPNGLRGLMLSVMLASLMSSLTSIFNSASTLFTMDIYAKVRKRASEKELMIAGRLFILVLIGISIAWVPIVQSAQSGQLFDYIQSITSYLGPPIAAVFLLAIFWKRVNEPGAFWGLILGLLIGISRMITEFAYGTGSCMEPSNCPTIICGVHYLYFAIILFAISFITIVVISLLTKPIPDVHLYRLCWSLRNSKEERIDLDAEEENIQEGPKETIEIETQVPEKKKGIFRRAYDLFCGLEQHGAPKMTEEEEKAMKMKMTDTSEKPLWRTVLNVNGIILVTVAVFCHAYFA
Method: Human sodium/glucose co-transporter type 1 (SGLT1; accession number NP_000334; GI: 4507031) was cloned into pIRESpuro2 vector for mammalian expression (construct: HA-SGLT1-pIRESpuro2).
HEK293 cells were transfected with the human HA-SGLT1-pIRESpuro2 vector and the bulk stable cell line was selected in presence of 0.5 μg/mL of puromycin. Human HA-SGLT1 cells were maintained in DMEM media containing 10% FBS, 1% GPS and 0.5 μg/mL of puromycin.
The HEK293 cells expressing the human HA-SGLT1 were seeded in 384 well plates (30,000 cells/well) in DMEM media containing 10% FBS, 1% GPS and 0.5 μg/mL of puromycin, then incubated overnight at 37 C, 5% CO2. Cells were then washed with uptake buffer (140 mM NaCl, 2 mM KCl, 1 mM CaCl2, 1 mM MgCl2, 10 mM HEPES, 5 mM Tris, 1 mg/mL bovine serum albumin (BSA), pH 7.3). Twenty microliters of uptake buffer with or without testing compounds were added to the cells. Then, 20 microliters of uptake buffer containing ^14C-AMG (100 nCi) were also added to cells. The cell plates were incubated at 37° C., 5% CO2 for 1-2 hours. After washing the cells with uptake buffer, scintillation fluid was added (40 microliters/well) and ^14C-AMG uptake was measured by counting radioactivity using a scintillation coulter (TopCoulter NXT; Packard Instruments).

Chain of Human sodium/glucose co-transporter type 2 (SGLT2) (P31639 whole entry): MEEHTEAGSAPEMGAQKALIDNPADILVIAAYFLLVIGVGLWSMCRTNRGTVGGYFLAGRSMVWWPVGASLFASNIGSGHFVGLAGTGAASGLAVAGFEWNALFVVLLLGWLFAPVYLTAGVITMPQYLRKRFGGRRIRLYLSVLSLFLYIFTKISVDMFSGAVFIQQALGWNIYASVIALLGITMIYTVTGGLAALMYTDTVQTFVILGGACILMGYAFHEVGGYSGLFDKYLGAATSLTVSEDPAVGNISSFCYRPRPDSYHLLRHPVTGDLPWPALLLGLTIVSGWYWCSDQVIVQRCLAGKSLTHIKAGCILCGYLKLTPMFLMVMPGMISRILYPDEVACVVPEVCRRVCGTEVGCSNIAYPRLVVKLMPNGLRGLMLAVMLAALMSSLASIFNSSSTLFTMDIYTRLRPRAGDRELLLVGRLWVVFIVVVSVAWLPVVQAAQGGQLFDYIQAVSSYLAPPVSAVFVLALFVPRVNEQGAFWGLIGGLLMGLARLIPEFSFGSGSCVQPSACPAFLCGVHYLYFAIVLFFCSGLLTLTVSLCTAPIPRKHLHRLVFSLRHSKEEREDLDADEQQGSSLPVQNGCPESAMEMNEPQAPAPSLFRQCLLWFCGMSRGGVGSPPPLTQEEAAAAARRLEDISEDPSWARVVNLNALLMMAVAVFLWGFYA

Structure (SMILES) | IC50 [1] [nM] | IC50 [2] [nM]
CS[C@H]1O[C@@H](c2ccc(C)c(Cc3ccc(CCCC(=O)NC(C)(C)C(=O)N4CCC(C)CC4)cc3)c2)[C@H](O)[C@@H](O)[C@@H]1O [N-(2-methyl-1-(4-methylpiperidin-1-yl)-1-oxopropan-2-yl)-4-(4-(2-methyl-5-((2S,3R,4R,5S,6R)-3,4,5-trihydroxy-6-(methylthio)tetrahydro-2H-pyran-2-yl)benzyl)phenyl)butanamide] | < 10 | < 10
COCCOCCOc1ccc(Cc2cc([C@@H]3O[C@H](SC)[C@@H](O)[C@H](O)[C@H]3O)ccc2C)cc1 [(2S,3R,4R,5S,6R)-2-(3-(4-(2-(2-methoxyethoxy)ethoxy)benzyl)-4-methylphenyl)-6-(methylthio)tetrahydro-2H-pyran-3,4,5-triol] | < 10 | < 10
CS[C@H]1O[C@@H](c2ccc(Cl)c(Cc3ccc(OCCNC4CCNCC4)cc3)c2)[C@H](O)[C@@H](O)[C@@H]1O [(2S,3R,4R,5S,6R)-2-(4-chloro-3-(4-(2-(piperidin-4-ylamino)ethoxy)benzyl)phenyl)-6-(methylthio)tetrahydro-2H-pyran-3,4,5-triol] | < 10 | < 100
CS[C@H]1O[C@@H](c2ccc(Cl)c(Cc3ccc(OCCCNC(=O)NC(C)(C)C(N)=O)cc3)c2)[C@H](O)[C@@H](O)[C@@H]1O [2-(3-(3-(4-(2-chloro-5-((2S,3R,4R,5S,6R)-3,4,5-trihydroxy-6-(methylthio)tetrahydro-2H-pyran-2-yl)benzyl)phenoxy)propyl)ureido)-2-methylpropanamide] | < 10 | < 10
CS[C@H]1O[C@@H](c2ccc(C)c(Cc3ccc(CCCCN)cc3)c2)[C@H](O)[C@@H](O)[C@@H]1O [(2S,3R,4R,5S,6R)-2-(3-(4-(4-aminobutyl)benzyl)-4-methylphenyl)-6-(methylthio)tetrahydro-2H-pyran-3,4,5-triol] | < 10 | < 10
CSC1OC(c2ccc(C)c(Cc3ccc(CCCC(=O)N4CCN(CCCN5CCN(C(=O)CCCc6ccc(Cc7cc(C8OC(SC)C(O)C(O)C8O)ccc7C)cc6)CC5)CC4)cc3)c2)C(O)C(O)C1O [(S,R,S,R,R)-1,1′-(4,4′-(propane-1,3-diyl)bis(piperazine-4,1-diyl))bis(4-(4-(2-methyl-5-((2S,3R,4R,5S,6R)-3,4,5-trihydroxy-6-(methylthio)tetrahydro-2H-pyran-2-yl)benzyl)phenyl)butan-1-one)] | < 10 | < 10
CS[C@H]1OC(c2ccc(C)c(Cc3ccc(OCCCNC4(C(N)=O)CCCC4)cc3)c2)[C@H](O)[C@@H](O)[C@@H]1O (stereo partly drawn) [1-((3-(4-(2-methyl-5-((3R,4R,5S,6R)-3,4,5-trihydroxy-6-(methylthio)tetrahydro-2H-pyran-2-yl)benzyl)phenoxy)propyl)amino)cyclopentanecarboxamide] | < 10 | < 10
CS[C@H]1O[C@@H](c2ccc(C)c(Cc3ccc(CCCCCC(=O)NC(CO)(CO)CO)cc3)c2)[C@H](O)[C@@H](O)[C@@H]1O [N-(1,3-dihydroxy-2-(hydroxymethyl)propan-2-yl)-6-(4-(2-methyl-5-((2S,3R,4R,5S,6R)-3,4,5-trihydroxy-6-(methylthio)tetrahydro-2H-pyran-2-yl)benzyl)phenyl)hexanamide] | < 10 | < 100
CS[C@H]1O[C@@H](c2ccc(C)c(Cc3ccc(CCCCNCC(C)(C)C(N)=O)cc3)c2)[C@H](O)[C@@H](O)[C@@H]1O [2,2-dimethyl-3-((4-(4-(2-methyl-5-((3R,4R,5S,6R)-3,4,5-trihydroxy-6-(methylthio)tetrahydro-2H-pyran-2-yl)benzyl)phenyl)butyl)amino)propanamide] | < 10 | < 10
CS[C@H]1O[C@@H](c2ccc(C)c(Cc3ccc(CCCC(=O)NCC(C)(C)C(=O)N4CCN(C)CC4)cc3)c2)[C@H](O)[C@@H](O)[C@@H]1O [N-(2,2-dimethyl-3-(4-methylpiperazin-1-yl)-3-oxopropyl)-4-(4-(2-methyl-5-((2S,3R,4R,5S,6R)-3,4,5-trihydroxy-6-(methylthio)tetrahydro-2H-pyran-2-yl)benzyl)phenyl)butanamide] | < 10 | < 10
CS[C@H]1O[C@@H](c2ccc(C)c(Cc3ccc(OCCCC(=O)NC(C)(C)CO)cc3)c2)[C@H](O)[C@@H](O)[C@@H]1O [N-(1-hydroxy-2-methylpropan-2-yl)-4-(4-(2-methyl-5-((2S,3R,4R,5S,6R)-3,4,5-trihydroxy-6-(methylthio)tetrahydro-2H-pyran-2-yl)benzyl)phenoxy)butanamide] | < 10 | < 10
CS[C@H]1O[C@@H](c2ccc(C)c(Cc3ccc(CCCC(=O)O)cc3)c2)[C@H](O)[C@@H](O)[C@@H]1O [4-(4-(2-methyl-5-((2S,3R,4R,5S,6R)-3,4,5-trihydroxy-6-(methylthio)tetrahydro-2H-pyran-2-yl)benzyl)phenyl)butanoic acid] | < 10 | < 100
CS[C@H]1OC(c2ccc(C)c(Cc3ccc(OCCCNC(C)(CO)CO)cc3)c2)[C@H](O)[C@@H](O)[C@@H]1O (stereo partly drawn) [(3R,4R,5S,6R)-2-(3-(4-(3-((1,3-dihydroxy-2-methylpropan-2-yl)amino)propoxy)benzyl)-4-methylphenyl)-6-(methylthio)tetrahydro-2H-pyran-3,4,5-triol] | < 10 | < 10

Further lines, results first:

IC50 [1] [nM] | IC50 [2] [nM] | Structure (SMILES)
< 10 | < 100 | CS[C@H]1O[C@@H](c2ccc(C)c(Cc3ccc(OCCCC(=O)NCCO)cc3)c2)[C@H](O)[C@@H](O)[C@@H]1O [N-(2-hydroxyethyl)-4-(4-(2-methyl-5-((2S,3R,4R,5S,6R)-3,4,5-trihydroxy-6-(methylthio)tetrahydro-2H-pyran-2-yl)benzyl)phenoxy)butanamide]
< 10 | < 1000 | CS[C@H]1O[C@@H](c2ccc(Cl)c(Cc3ccc(OCCCC(=O)O)cc3)c2)[C@H](O)[C@@H](O)[C@@H]1O [4-(4-(2-chloro-5-((2S,3R,4R,5S,6R)-3,4,5-trihydroxy-6-(methylthio)tetrahydro-2H-pyran-2-yl)benzyl)phenoxy)butanoic acid]
< 10 | < 10 | CS[C@H]1O[C@@H](c2ccc(C)c(Cc3ccc(CCCC(=O)NC(C)(C)C(=O)N4CCNCC4)cc3)c2)[C@H](O)[C@@H](O)[C@@H]1O [N-(2-methyl-1-oxo-1-(piperazin-1-yl)propan-2-yl)-4-(4-(2-methyl-5-((2S,3R,4R,5S,6R)-3,4,5-trihydroxy-6-(methylthio)tetrahydro-2H-pyran-2-yl)benzyl)phenyl)butanamide]
< 10 | < 10 | CNC(=O)C(C)(C)NC(=O)CCCc1ccc(Cc2cc([C@@H]3O[C@H](SC)[C@@H](O)[C@H](O)[C@H]3O)ccc2C)cc1 [N-(2-methyl-1-(methylamino)-1-oxopropan-2-yl)-4-(4-(2-methyl-5-((2S,3R,4R,5S,6R)-3,4,5-trihydroxy-6-(methylthio)tetrahydro-2H-pyran-2-yl)benzyl)phenyl)butanamide]
< 10 | < 10 | CS[C@H]1O[C@@H](c2ccc(C)c(Cc3ccc(CCCC(=O)NCCCN(C)CCCNC(=O)CCCc4ccc(Cc5cc([C@@H]6O[C@H](SC)[C@@H](O)[C@H](O)[C@H]6O)ccc5C)cc4)cc3)c2)[C@H](O)[C@@H](O)[C@@H]1O [(S,R,S,R,R)-N,N′-((methylazanediyl)bis(propane-3,1-diyl))bis(4-(4-(2-methyl-5-((2S,3R,4R,5S,6R)-3,4,5-trihydroxy-6-(methylthio)tetrahydro-2H-pyran-2-yl)benzyl)phenyl)butanamide)]
< 10 | < 10 | CS[C@H]1O[C@@H](c2ccc(C)c(Cc3ccc(OCCCC(=O)NC(C)(C)C(=O)NC4CCNCC4)cc3)c2)[C@H](O)[C@@H](O)[C@@H]1O [N-(2-methyl-1-oxo-1-(piperidin-4-ylamino)propan-2-yl)-4-(4-(2-methyl-5-((2S,3R,4R,5S,6R)-3,4,5-trihydroxy-6-(methylthio)tetrahydro-2H-pyran-2-yl)benzyl)phenoxy)butanamide]
